Results as given in patent US9274100B2, “Method for optical measuring variations of cell membrane conductance” (OSPEDALE SAN RAFFAELE S.R.L., priority 2009, dated 2016).

Columns and labels:
[1] = system: HeLa cells; test: Optical detection of changes in membrane conductance induced by aspecific permeabilization (fast-VSD, electric current pulses, internal control); assay type: cell-based; details: measures up to four minutes after administration, conductance normalised to value at t=0
Description: (§1) Before the experiment, cells were washed with a Krebs-Ringer's solution buffered with HEPES (KRH; in mM: 150 NaCl, 5 KCl, 1.2 MgSO4, 1.2 KH2PO4, 2 CaCl2, 10 glucose, and 10 HEPES, pH 7.4) and incubated with […] di-4-ANEPPS, a fast-VSD (Invitrogen).
(§2) Conductance changes were monitored by measuring the change in fluorescence induced by electric current pulses, quantified as the difference between the mean of plateau values (either positive or negative, depending on the type of stimulus and geometry of the cell) and the mean of pre-stimulation values divided by the mean of pre-stimulation values, ΔF %. As detailed above, normalisation for the values prevailing before stimulation provided a correction for dye bleaching during the experiment, so that fluorescence changes produced by additional stimuli could be compared. […]
(§3) The responsivity to the molecule active on membrane permeability was determined according to two different protocols: • Estimation of conductance with internal control (responses, before and after exposure to the experimental treatment, measured on the same pixels). […]
(§4) Afterward, membrane potential changes evoked by current pulses of fixed intensity were calculated within the same subcellular regions identified by the functional mask after exposure to the experimental treatment. […]

[2] = system: HeLa cells; test: Optical detection of changes in plasma membrane conductance induced by streptolysin-O (fast-VSD, electric current pulses, internal control); assay type: cell-based; details: increasing streptolysin-O concentration (50, 100 and 150 units), hyperpolarising and depolarising responses
Description: as §1, §2, §3, §4

Substance	effect on membrane conductance ([1]; 0.05% volume)	effect on membrane conductance ([1]; 0.5% volume)	Fast-VSD fluorescence variation during unipolar square pulse [2]
triton X-100	negligible effect	marked drop	–
streptolysin-O: bacterial protein able to insert into the eukaryotic plasma membrane where it forms a non selective ionic channel	–	–	clear reduction in the fluorescence variation
